According to patent publication US20260285850A1, “SUBSTITUTED OXAZOLIDINONES AND IMIDAZOLINONES AS HERBICIDES” (FMC CORPORATION, priority 2023, published 2026):

Key:
Format in all cases: in vivo
[1] = system: green foxtail (Setaria viridis); experiment: Test A postemergence application, visual injury rating 0-100; conditions: Postemergence, 10 days; for Foxtail, Green plant response rating (0 to 100 scale): 0 is no effect, 100 is complete control
How it was run: (§1)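 Preemergence directed soil spray or postemergence spray (2-10 cm, 1-2 leaf); loam/sand mix; compound in non-phytotoxic solvent + surfactant. Greenhouse, 10 d. Visual injury vs untreated, 0 = none, 100 = complete control.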

[2] = system: galium (catchweed bedstraw, Galium aparine); experiment: as above; conditions: Postemergence, 10 days; for Galium plant response rating (0 to 100 scale): 0 is no effect, 100 is complete control
How it was run: as §1

[3] = system: palmer (palmer amaranth, palmer pigweed, Amaranthus palmeri); experiment: as above; conditions: Postemergence, 10 days, 0 is no effect, 100 is complete control
How it was run: as §1

[4] = system: blackgrass (Alopecurus myosuroides); experiment: as above; conditions: Postemergence, 10 days; for Blackgrass plant response rating (0 to 100 scale): 0 is no effect, 100 is complete control
How it was run: as §1

[5] = system: wheat (Triticum aestivum); experiment: as above; conditions: Postemergence, 10 days, 0 is no effect, 100 is complete control
How it was run: as §1

[6] = system: ragweed (common ragweed, Ambrosia artemisiifolia); experiment: as above; conditions: Postemergence, 10 days, 0 is no effect, 100 is complete control
How it was run: as §1

[7] = system: oat, wild (wild oat, Avena fatua); experiment: as above; conditions: Postemergence, 10 days, 0 is no effect, 100 is complete control
How it was run: as §1

[8] = system: kochia (Bassia scoparia); experiment: as above; conditions: Postemergence, 10 days; for Kochia plant response rating (0 to 100 scale): 0 is no effect, 100 is complete control
How it was run: as §1

[9] = system: barnyardgrass (Echinochloa crus-galli); experiment: as above; conditions: Postemergence, 10 days; for Barnyardgrass plant response rating (0 to 100 scale): 0 is no effect, 100 is complete control
How it was run: as §1

[10] = system: corn (Zea mays); experiment: as above; conditions: Postemergence, 10 days, 0 is no effect, 100 is complete control
How it was run: as §1

[11] = system: ryegrass, Italian (italian ryegrass, Lolium multiflorum); experiment: as above; conditions: Postemergence, 10 days, 0 is no effect, 100 is complete control
How it was run: as §1

[12] = system: horseweed (Erigeron canadensis); experiment: as above; conditions: Postemergence, 10 days; for Horseweed plant response rating (0 to 100 scale): 0 is no effect, 100 is complete control
How it was run: as §1

[13] = system: soybean (Glycine max); experiment: as above; conditions: Postemergence, 10 days, 0 is no effect, 100 is complete control
How it was run: as §1

[14] = system: barnyardgrass (Echinochloa crusgalli); experiment: Test B flooded paddy test, visual plant response rating 0-100; conditions: 250 g ai/ha, Flood, applied to paddy water, evaluated after 13 days
How it was run: (§2)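 Treatment occurs at the 2-leaf stage by adding compound to floodwater standing 3 cm above the soil, a level kept for the whole test. Plants stay in the greenhouse 13 days before visual comparison with controls.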

[15] = system: ducksalad (Heteranthera limosa); experiment: as above; conditions: 250 g ai/ha, Flood, applied to paddy water, evaluated after 13 days
How it was run: as §2

[16] = system: rice (Oryza sativa); experiment: as above; conditions: 250 g ai/ha, Flood, applied to paddy water, evaluated after 13 days
How it was run: as §2

[17] = system: sedge, umbrella (small-flower umbrella sedge, Cyperus difformis); experiment: as above; conditions: 250 g ai/ha, Flood, applied to paddy water, evaluated after 13 days
How it was run: as §2

[18] = system: green foxtail (Setaria viridis); experiment: Test A preemergence soil spray, visual injury rating 0-100; conditions: 10 days, 0 = no effect, 100 = complete control
How it was run: as §1

[19] = system: palmer (palmer amaranth, palmer pigweed, Amaranthus palmeri); experiment: as above; conditions: 10 days, 0 = no effect, 100 = complete control
How it was run: as §1

[20] = system: blackgrass (Alopecurus myosuroides); experiment: as above; conditions: 10 days, 0 = no effect, 100 = complete control
How it was run: as §1

[21] = system: wheat (Triticum aestivum); experiment: as above; conditions: 10 days, 0 = no effect, 100 = complete control
How it was run: as §1

[22] = system: oat, wild (wild oat, Avena fatua); experiment: as above; conditions: 10 days, 0 = no effect, 100 = complete control
How it was run: as §1

[23] = system: kochia (Bassia scoparia); experiment: as above; conditions: 10 days, 0 = no effect, 100 = complete control
How it was run: as §1

[24] = system: barnyardgrass (Echinochloa crus-galli); experiment: as above; conditions: 10 days, 0 = no effect, 100 = complete control
How it was run: as §1

[25] = system: corn (Zea mays); experiment: as above; conditions: 10 days, 0 = no effect, 100 = complete control
How it was run: as §1

[26] = system: ryegrass, Italian (italian ryegrass, Lolium multiflorum); experiment: as above; conditions: 10 days, 0 = no effect, 100 = complete control
How it was run: as §1

[27] = system: soybean (Glycine max); experiment: as above; conditions: 10 days, 0 = no effect, 100 = complete control
How it was run: as §1

[28] = system: ragweed (common ragweed, Ambrosia artemisiifolia); experiment: as above; conditions: 1000 g ai/ha, 10 days, 0 = no effect, 100 = complete control
How it was run: as §1

CC1(C(=O)NC2C=CC(C(=O)OCC#N)C2)CN(c2cc(F)cc(F)c2)C(=O)O1 (stereo not shown) [Compound 35]
Foxtail, Green plant response rating (0 to 100 scale) ([1]; 125 g ai/ha): 90
Foxtail, Green plant response rating (0 to 100 scale) ([1]; 500 g ai/ha): 90
Galium plant response rating (0 to 100 scale) ([2]; 125 g ai/ha): 80
Galium plant response rating (0 to 100 scale) ([2]; 500 g ai/ha): 80
Amaranth, Palmer / Pigweed, Palmer plant response rating (0 to 100 scale) ([3]; 125 g ai/ha): 80
Amaranth, Palmer / Pigweed, Palmer plant response rating (0 to 100 scale) ([3]; 500 g ai/ha): 100
Blackgrass plant response rating (0 to 100 scale) ([4]; 125 g ai/ha): 90
Blackgrass plant response rating (0 to 100 scale) ([4]; 500 g ai/ha): 100
Wheat plant response rating (0 to 100 scale) ([5]; 125 g ai/ha): 70
Wheat plant response rating (0 to 100 scale) ([5]; 500 g ai/ha): 80
Ragweed plant response rating (0 to 100 scale) ([6]; 125 g ai/ha): 70
Ragweed plant response rating (0 to 100 scale) ([6]; 500 g ai/ha): 80
Oat, Wild plant response rating (0 to 100 scale) ([7]; 125 g ai/ha): 100
Oat, Wild plant response rating (0 to 100 scale) ([7]; 500 g ai/ha): 100
Kochia plant response rating (0 to 100 scale) ([8]; 125 g ai/ha): 70
Kochia plant response rating (0 to 100 scale) ([8]; 500 g ai/ha): 70
Barnyardgrass plant response rating (0 to 100 scale) ([9]; 125 g ai/ha): 100
Barnyardgrass plant response rating (0 to 100 scale) ([9]; 500 g ai/ha): 100
Corn plant response rating (0 to 100 scale) ([10]; 125 g ai/ha): 100
Corn plant response rating (0 to 100 scale) ([10]; 500 g ai/ha): 100
Ryegrass, Italian plant response rating (0 to 100 scale) ([11]; 125 g ai/ha): 90
Ryegrass, Italian plant response rating (0 to 100 scale) ([11]; 500 g ai/ha): 90
Horseweed plant response rating (0 to 100 scale) ([12]; 125 g ai/ha): 80
Horseweed plant response rating (0 to 100 scale) ([12]; 500 g ai/ha): 90
Soybean plant response rating (0 to 100 scale) ([13]; 125 g ai/ha): 70
Soybean plant response rating (0 to 100 scale) ([13]; 500 g ai/ha): 90
Plant response rating, Barnyardgrass (0 to 100 scale, 0 is no effect and 100 is complete control) [14]: 95
Plant response rating, Ducksalad (0 to 100 scale, 0 is no effect and 100 is complete control) [15]: 90
Plant response rating, Rice (0 to 100 scale, 0 is no effect and 100 is complete control) [16]: 50
Plant response rating, Sedge, Umbrella (0 to 100 scale, 0 is no effect and 100 is complete control) [17]: 90
Foxtail, Green plant response rating (0 to 100 scale) ([18]; 125 g ai/ha): 90
Foxtail, Green plant response rating (0 to 100 scale) ([18]; 500 g ai/ha): 100
Amaranth, Palmer plant response rating (0 to 100 scale) ([19]; 125 g ai/ha): 100
Amaranth, Palmer plant response rating (0 to 100 scale) ([19]; 500 g ai/ha): 100
Blackgrass plant response rating (0 to 100 scale) ([20]; 125 g ai/ha): 70
Blackgrass plant response rating (0 to 100 scale) ([20]; 500 g ai/ha): 90
Wheat plant response rating (0 to 100 scale) ([21]; 125 g ai/ha): 90
Wheat plant response rating (0 to 100 scale) ([21]; 500 g ai/ha): 100
Oat, Wild plant response rating (0 to 100 scale) ([22]; 125 g ai/ha): 90
Oat, Wild plant response rating (0 to 100 scale) ([22]; 500 g ai/ha): 90
Kochia plant response rating (0 to 100 scale) ([23]; 125 g ai/ha): 90
Kochia plant response rating (0 to 100 scale) ([23]; 500 g ai/ha): 90
Barnyardgrass plant response rating (0 to 100 scale) ([24]; 125 g ai/ha): 100
Barnyardgrass plant response rating (0 to 100 scale) ([24]; 500 g ai/ha): 100
Corn plant response rating (0 to 100 scale) ([25]; 125 g ai/ha): 90
Corn plant response rating (0 to 100 scale) ([25]; 500 g ai/ha): 100
Ryegrass, Italian plant response rating (0 to 100 scale) ([26]; 125 g ai/ha): 100
Ryegrass, Italian plant response rating (0 to 100 scale) ([26]; 500 g ai/ha): 100
Soybean plant response rating (0 to 100 scale) ([27]; 125 g ai/ha): 80
Soybean plant response rating (0 to 100 scale) ([27]; 500 g ai/ha): 90

CC1(C(=O)NC2CC=C(C(=O)O)C2)CN(c2cc(F)cc(F)c2)C(=O)N1 (stereo not shown) [Compound 182]
Foxtail, Green plant response rating ([1]; 1000 g ai/ha, 0 to 100 scale): 90
Galium plant response rating ([2]; 1000 g ai/ha, 0 to 100 scale): 90
Blackgrass plant response rating ([4]; 1000 g ai/ha, 0 to 100 scale): 90
Kochia plant response rating ([8]; 1000 g ai/ha, 0 to 100 scale): 80
Barnyardgrass plant response rating ([9]; 1000 g ai/ha, 0 to 100 scale): 90
Horseweed plant response rating ([12]; 1000 g ai/ha, 0 to 100 scale): 80
Plant response rating, Barnyardgrass (0 to 100 scale, 0 is no effect and 100 is complete control) [14]: 20
Plant response rating, Ducksalad (0 to 100 scale, 0 is no effect and 100 is complete control) [15]: 60
Plant response rating, Rice (0 to 100 scale, 0 is no effect and 100 is complete control) [16]: 15
Plant response rating, Sedge, Umbrella (0 to 100 scale, 0 is no effect and 100 is complete control) [17]: 70
Foxtail, Green plant response rating (0 to 100 scale) ([18]; 1000 g ai/ha): 100
Amaranth, Palmer / Pigweed, Palmer plant response rating (0 to 100 scale) ([19]; 1000 g ai/ha): 90
Blackgrass plant response rating (0 to 100 scale) ([20]; 1000 g ai/ha): 90
Ragweed plant response rating (0 to 100 scale) [28]: 30
Kochia plant response rating (0 to 100 scale) ([23]; 1000 g ai/ha): 90
Barnyardgrass plant response rating (0 to 100 scale) ([24]; 1000 g ai/ha): 80
Ryegrass, Italian plant response rating (0 to 100 scale) ([26]; 1000 g ai/ha): 90
